In patent publication US20230312587A1, “PTERIDINONE COMPOUNDS AND USES THEREOF” (Vertex Pharmaceutical Incorporated, priority 2018, published 2023):
Like-named read-outs stand apart in the source and are kept apart here. Each block holds one compound with its values, some of them ahead of it.

What was measured:
Colo-205 Control shRNA = assay: TCF reporter activity, Colo-205 Control shRNA; format: cell-based
Protocol: (§1) Colo-205 (ATCC, catalog #CCL-222), HepG2 (ATCC, catalog #HB-8065), CFPAC1 (ATCC, catalog #CRL-1918), or DU4475 (ATCC, catalog #HTB-123) cells are plated in 10 mL of complete DMEM cell culture media [DMEM (Life Technologies, product #11960-051) media supplemented with 10% FBS (Hyclone, catalog #SH30071.03), antimycotic/antibiotic (Life Technologies, product #15240-062), and Glutamax (Life Technologies, product #35050-061)] at 3×10^6 cells per 10 cm cell culture plate (Corning, product #430167). Cells are allowed to attach and grow overnight at 37° C. in humidified 5% CO2. Cells are transduced by addition of 1×10^6 infectious units of lentivirus encoding WFS1 shRNA (Santa Cruz Biotech, catalog #sc-61804-V) or a non-targeting control shRNA (Santa Cruz Biotech, catalog #sc-108080) and 10 ug/ml of Polybrene® (Santa Cruz Biotech, catalog #sc-134220) to the cell culture media. After 48 hours transduced cells are selected by the addition of 1 microgram/mL of puromycin (Life Technologies, catalog #A1113803) to the cell culture media.

Colo-205 WFS1 shRNA = assay: TCF reporter activity, Colo-205 WFS1 shRNA; format: cell-based
Protocol: as §1

DU4475 Control shRNA = assay: TCF reporter activity, DU4475 Control shRNA; format: cell-based
Protocol: as §1

DU4475 WFS1 shRNA = assay: TCF reporter activity, DU4475 WFS1 shRNA; format: cell-based
Protocol: as §1

[1] = test system: Colo-205 cells, non-targeting control shRNA; assay: Cell viability, Colo-205 control shRNA; format: cell-based
Protocol: as §1

[2] = test system: Colo-205 cells, shRNA targeting WFS1; assay: Cell viability, Colo-205 WFS1 shRNA; format: cell-based; conditions: for increase in the IC50 in reducing cell viability on WFS1 knockdown: DU4475, Colo-205 and HepG2 cells, WFS1 shRNA vs control cells; for IC50: Colo-205 WFS1 shRNA
Protocol: as §1

[3] = test system: DU4475 cells, non-targeting control shRNA; assay: Cell viability, DU4475 control shRNA; format: cell-based
Protocol: as §1

[4] = test system: DU4475 cells, shRNA targeting WFS1; assay: Cell viability, DU4475 WFS1 shRNA; format: cell-based
Protocol: as §1

[5] = test system: HepG2 cells, non-targeting control shRNA; assay: Cell viability, HepG2 control shRNA; format: cell-based
Protocol: as §1

[6] = test system: HepG2 cells, shRNA targeting WFS1; assay: Cell viability, HepG2 WFS1 shRNA; format: cell-based
Protocol: as §1

[7] = test system: HepG2 cells with CRISPR/Cas9 mediated WFS1 knockout (KO); assay: Calcium flux in parental HepG2 vs HepG2 WFS1 knockout cells; format: cell-based; conditions: 30 minutes after compound addition
Text: A double cleavage strategy was employed to remove large fragments from the WFS1 locus. Suitable target sites in WFS1 exon 8 were first selected using CRISPR design software to rank suitable target sites and computationally predict off-target sites for each intended target. Six top guide RNA sequences are identified and screened for activity using the Surveyor Mutation Detection Kit (Integrated DNA Technologies). Then, the best 2 guide RNAs were cloned into GeneArt OFP CRISPR nuclease vectors (Thermofisher, Cat #A21174) separately and co-transfected into HepG2 cells using nucleofection (4D Nucleofector X, Lonza). Cells were sorted by FACS 48 hrs later to enrich for the OFP positive cell population. The OFP positive cell population were plated into 96-well plates at 0.5-5 cells/well to isolate clonal cell lines. After allowing cells to expand for 2-3 weeks, plates were inspected for presence of colonies. When colonies became more than 70% confluent, they were dissociated with trypsin and were further expanded. Cell clones with homozygous double cleavage of WFS1 exon 8 were detected with PCR and confirmed with DNA sequencing.

[8] = test system: Hek293 cells over-expressing WFS1; assay: Calcium flux in Hek293 cells over-expressing WFS1 vs empty vector; format: cell-based; conditions: induction of calcium flux
Text: To determine the effect of WFS1 over-expression on compound mediated effects on calcium flux and cell viability, Hek293 cells were transduced with either an empty retroviral vector or a retroviral vector expressing full length WFS1 cDNA. Hek293 cells transduced with the WFS1 encoding retrovirus expressed greater than 100 times the amount of WFS1 protein than empty vector Hek293 cells (FIG. 3).

WFS1 = WFS1 (Homo sapiens (Human), UniProt O76024); assay: Binding of radiolabeled Compound 136 to cellular membrane extracts
Protocol: Cell pellets were re-suspended in 15 times packed cellular volume in 4° C. hypotonic lysis buffer (10 mM HEPES, pH 7.5 containing 1×Protease inhibitor, 0.5 mM EDTA and 2 mM DTT). Re-suspended cells were homogenized with 6-8 strokes in a dounce homogenizer kept on ice. Lysates were centrifuged at 500×G for 15 minutes at 4° C. without brake to decelerate rotor. Following centrifugation, remove the supernatant to a fresh tube and place on ice (Supernatant 1). Repeat the above steps on the lysed cell pellet using 0.5 the original volume of hypotonic lysis buffer and remove the 500× G supernatant (Supernatant 2) and combine with Supernatant 1. Transfer the combined supernatants to a 45-Ti ultracentrifuge tube and centrifuge at 100,000× G for 30 minutes. Following ultracentrifugation, carefully remove the supernatant and discard. Resuspend the 100,000× G pellet in cold resuspension buffer (10 mM HEPES, pH 7.5, 300 mM NaCl containing 1× Protease inhibitor, 1× EDTA and 2 mM DTT). […]
The binding affinities of compounds were determined by measuring the competitive displacement of a tritiated Compound 136 probe from purified HEK293 membranes over-expressing WFS-1. […]
The binding affinity of radiolabeled Compound 136 to cell membranes derived from cells expressing different levels of WFS1 as determined by immunoblotting is shown in FIG. 8. […]

lung PDX models = assay: Response of lung PDX models with highest and lowest WFS1 gene expression; format: in vivo; conditions: 10 highest and 10 lowest WFS1 expressing lung PDX models
Text: Finally, an in vivo study was run to evaluate the relationship between WFS1 expression in patient derived xenografts (PDX). To do this, the 10 lung PDX models with the highest WFS1 gene expression and the 10 lung PDX models with the lowest WFS1 gene expression were selected from the Oncotest compendium.

Sequence of WFS1 (O76024 whole entry): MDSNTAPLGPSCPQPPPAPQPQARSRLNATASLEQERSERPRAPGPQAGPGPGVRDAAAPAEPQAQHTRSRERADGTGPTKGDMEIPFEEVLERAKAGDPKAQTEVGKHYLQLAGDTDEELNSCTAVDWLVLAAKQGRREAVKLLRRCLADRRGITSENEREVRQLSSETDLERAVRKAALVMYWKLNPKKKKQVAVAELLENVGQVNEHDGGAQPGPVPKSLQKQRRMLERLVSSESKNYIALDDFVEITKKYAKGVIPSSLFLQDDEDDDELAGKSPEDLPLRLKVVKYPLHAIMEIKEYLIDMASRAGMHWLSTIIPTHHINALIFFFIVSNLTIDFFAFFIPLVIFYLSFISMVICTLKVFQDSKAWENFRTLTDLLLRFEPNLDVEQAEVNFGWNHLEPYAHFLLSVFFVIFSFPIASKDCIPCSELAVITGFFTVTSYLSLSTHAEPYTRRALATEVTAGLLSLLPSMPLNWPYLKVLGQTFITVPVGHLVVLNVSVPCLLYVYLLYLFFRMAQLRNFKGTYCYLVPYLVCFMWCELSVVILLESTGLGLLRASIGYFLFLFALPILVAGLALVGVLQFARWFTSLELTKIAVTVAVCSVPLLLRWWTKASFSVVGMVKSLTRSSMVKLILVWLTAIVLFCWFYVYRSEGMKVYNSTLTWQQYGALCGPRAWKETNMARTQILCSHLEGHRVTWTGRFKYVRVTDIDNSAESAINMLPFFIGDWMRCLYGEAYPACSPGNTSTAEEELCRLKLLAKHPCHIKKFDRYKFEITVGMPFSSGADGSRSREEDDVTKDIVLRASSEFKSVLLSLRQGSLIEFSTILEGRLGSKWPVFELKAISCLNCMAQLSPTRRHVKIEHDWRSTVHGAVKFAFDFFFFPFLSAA

IC50 (Colo-205 Control shRNA; Homo sapiens): 0.2 µM | IC50 (Colo-205 WFS1 shRNA; Homo sapiens): 1.5 µM | IC50 (DU4475 Control shRNA; Homo sapiens, DU-4475): 0.2 µM | IC50 (DU4475 WFS1 shRNA; Homo sapiens, DU-4475): 1 µM | IC50 ([1]; Homo sapiens): 0.14 µM | increase in the IC50 in reducing cell viability on WFS1 knockdown [2]: greater than 50 fold | IC50 ([2]; Homo sapiens): > 9 µM | IC50 ([5]; Homo sapiens): 0.2 µM | IC50 ([6]; Homo sapiens): 17 µM
Compound: Cc1nc(N[C@H]2C[C@H](Oc3cc(F)c(F)c(F)c3)C2)nc2c1N(C)C(=O)[C@H](C)N2C [Compound 253, (7S)-4,5,7,8-tetramethyl-2-((trans-3-(3,4,5-trifluorophenoxy)cyclobutyl)amino)-7,8-dihydropteridin-6(5H)-one]
IC50 ([3]; Homo sapiens, DU-4475): 0.1 µM | IC50 ([4]; Homo sapiens, DU-4475): 7.8 µM

melting point: 136 to 138 °C
Compound: COc1c(F)cc(Cn2cc(CNc3nc(C)c4c(n3)N(C)[C@@H](C)C(=O)N4)cn2)cc1F [Compound 46, (7S)-2-(((1-(3,5-difluoro-4-methoxybenzyl)-1H-pyrazol-4-yl)methyl)amino)-4,7,8-trimethyl-7,8-dihydropteridin-6(5H)-one]

Compound: Cc1nc(NCc2cnn(Cc3ccc(C(F)(F)F)nc3)c2)nc2c1NC(=O)[C@H](C)N2C [Compound 136, (7S)-4,7,8-trimethyl-2-(((1-((6-(trifluoromethyl)pyridin-3-yl)methyl)-111-pyrazol-4-yl)methyl)amino)-7,8-dihydropteridin-6(5H)-one]
IC50 (Colo-205 Control shRNA): 0.1 µM | IC50 (Colo-205 WFS1 shRNA): 0.7 µM | IC50 (DU4475 Control shRNA): 0.09 µM | IC50 (DU4475 WFS1 shRNA): 0.7 µM | IC50 [1]: 0.05 µM | IC50 [2]: > 9 µM | increase in the IC50 in reducing cell viability on WFS1 knockdown [2]: greater than 50 fold | IC50 [3]: 0.08 µM | IC50 [4]: 6.1 µM | IC50 [5]: 0.26 µM | IC50 [6]: 2.2 µM | effect of WFS1 depletion on ability to induce calcium flux [7]: completely eliminated | reduction in the EC50 on over-expression of WFS1 [8]: approximately 10 fold | binding to cellular membrane extracts which over-express WFS1 (WFS1; radiolabeled (tritiated) Compound 136): specifically bind | Bmax vs level of WFS1 protein in cellular membrane (WFS1; radiolabeled Compound 136, cells expressing different levels of WFS1): correlates with the level of WFS1 protein | association between WFS1 gene expression and response in PDX models (lung PDX models): strong association
